Data reported in patent publication US11382892B2, “Method for administration” (Hoffmann-La Roche Inc., priority 2012, dated 2022).
Values joined by “and” are separate entries in the source; they are usually repeats but may differ in a detail not shown here. Equal values may be shown once.

Assays:
[1] = Toxicity summary (body weight, mortality) in MOLM-13 xenograft study; type: in vivo; settings: MOLM-13 study
From the text: In the examples below, weight loss was graphically represented as percent change in mean group body weight, using the formula: ((W−W0)/W0)×100, where ‘W’ represents mean body weight of the treated group at a particular day, and ‘W0’ represents mean body weight of the same treated group at initiation of treatment.
Female SCID:beige mice (10/group), obtained from Charles River Laboratories (Wilmington, Del.) were utilized when they were approximately 8-10 weeks of age and weighed 21-23 g. The health of the mice was assessed daily by gross observation and analyses of blood samples taken from sentinel animals housed on shared shelf racks. All animals were allowed to acclimate and recover from any shipping-related stress for a minimum of 72 hours prior to experimental use. Autoclaved water and irradiated food (5058-ms Pico Lab mouse chow, Purina Mills, Richmond, Ind.) were provided ad libitum, and the animals were maintained on a 12 hour light and dark cycle. Cages, bedding and water bottles were autoclaved before use and changed weekly. All animal experiments were conducted in accordance with the Guide for the Care and Use of Laboratory Animals, local regulations, and protocols approved by the Roche Animal Care and Use Committee in an AAALAC accredited facility.
Treatment duration was initiated on day 3 and was for 2 weeks. Animal body weights were measured three times per week and animals were monitored for clinical signs daily.

[2] = system: MDM2 mRNA; assay: MDM2 mRNA assay in patient tumor biopsies; type: in vivo, human; settings: for MDM2 mRNA Average FCBL: cohort average; for MDM2 mRNA Median FCBL: cohort median; for MDM2 mRNA FCBL: individual patients, tumor biopsy vs baseline
Protocol: (§1) The 10 mg tablets contain hypromellose acetate succinate, mannitol, microcrystalline cellulose, croscarmellose sodium, colloidal silicon dioxide, and magnesium stearate. The film-coat consists of hypromellose, titanium dioxide, talc, triacetin, iron oxide yellow, and iron oxide red. The 50 mg, 200 mg, and 400 mg film coated tablets contain the excipients hypromellose acetate succinate, croscarmellose sodium, colloidal silicon dioxide, and magnesium stearate. The film-coat consists of polyvinyl alcohol, titanium dioxide, polyethylene glycol, talc, iron oxide yellow, iron oxide red, and iron oxide black.
(§2) Tumor biopsies were collected at baseline and cycle 1, day 5±2.

[3] = system: Ki-67 protein; assay: Ki-67 IHC assay in patient tumor biopsies; type: in vivo, human; settings: for Ki-67 IHC Average % CBL: cohort average; for Ki-67 IHC Median % CBL: cohort median; for Ki-67 IHC % CBL: individual patients, tumor biopsy vs baseline
Protocol: as §1, §2
The Ki-67 protein is a cellular marker for proliferation. It is strictly associated with cell proliferation and can be measured in tissue sections via immunohistochemistry to determine degree of proliferation. Ki-67 protein is present during all active phases of the cell cycle (G1, S, G2, and mitosis), but is absent from resting cells (00).

[4] = system: TUNEL + cells; assay: TUNEL assay in patient tumor biopsy cells; type: in vivo, human; settings: for TUNEL + cells (mm2) Average FCBL: cohort average; for TUNEL + cells (mm2) Median FCBL: cohort median; for TUNEL + cells (mm2) FCBL: individual patients, tumor biopsy vs baseline
Protocol: as §1, §2
Tumor biopsy cells were analyzed via TUNEL (terminal deoxynucleotidyl transferase dUTP nick end labeling) to determine cell apoptosis. TUNEL is a common method for detecting DNA fragmentation that results from apoptotic signaling cascades. The assay relies on the presence of nicks in the DNA which can be identified by terminal deoxynucleotidyl transferase or TdT, an enzyme that will catalyze the addition of dUTPs that are secondarily labeled with a marker.

[5] = system: tumor proliferation; assay: FLT PET imaging of tumor proliferation in patients; type: in vivo, human; settings: for FLT PET Average % CBL: cohort average; for FLT PET Median % CBL: cohort median; for FLT PET % CBL Cycle 1: individual patients
Protocol: as §1, with “black. […]” for “black.”
A negative percent change from baseline is indicative of an antiproliferative effect.

[6] = system: solid tumors; assay: On-going Phase I studies in solid tumors; type: in vivo, human
From the text: Thus, a 3-5 daily treatment schedule is expected to provide the best benefit ratio taking into consideration efficacy and toxicity.

Question: What does the source list for `COc1cc(C(=O)O)ccc1NC(=O)[C@@H]1N[C@@H](CC(C)(C)C)[C@](C#N)(c2ccc(Cl)cc2F)[C@H]1c1cccc(Cl)c1F` [Compound A, 4-{[(2R,3S,4R,5S)-4-(4-Chloro-2-fluoro-phenyl)-3-(3-chloro-2-fluoro-phenyl)-4-cyano-5-(2,2-dimethyl-propyl)-pyrrolidine-2-carbonyl]-amino}-3-methoxy-benzoic acid]?
Answer: treatment related toxicity ([1]; 80 mg/kg qd × 5 po): absence of treatment related toxicity; # of animals ≥20% BWL ([1]; 80 mg/kg qdx5 po): 0; % Change in Body Weight at end of Study Day 17 ([1]; 80 mg/kg qdx5 po): −3.2%; Maximum % Weight gain ([1]; 80 mg/kg qdx5 po): −3.2%; Maximum % Weight loss ([1]; 80 mg/kg qdx5 po): −5.5%; Mortality (reason) ([1]; 80 mg/kg qdx5 po, reason: dosing injury): 1 (dosing; MDM2 mRNA Average FCBL ([2]; BM-A1 800 mg bid Qwk × 3): 1.2; MDM2 mRNA Median FCBL ([2]; BM-A1 800 mg bid Qwk × 3): 1.1; MDM2 mRNA FCBL ([2]; BM-A1 800 mg bid Qwk × 3): 1.0 and 1.4 and 1.1; MDM2 mRNA Average FCBL ([2]; BM-A2 1200 mg bid Qwk × 3): 1.4; MDM2 mRNA Median FCBL ([2]; BM-A2 1200 mg bid Qwk × 3): 1.3; MDM2 mRNA FCBL ([2]; BM-A2 1200 mg bid Qwk × 3): 1.0 (2×) and 1.8 and 2.1 and 1.3; MDM2 mRNA Average FCBL ([2]; BM-B1 400 mg bid × 5 d): 8.5; MDM2 mRNA Median FCBL ([2]; BM-B1 400 mg bid × 5 d): 8.7; MDM2 mRNA FCBL ([2]; BM-B1 400 mg bid × 5 d): 5.4 and 3.7 and 12.1 and 12.9; MDM2 mRNA Average FCBL ([2]; BM-B2 500 mg bid × 3 d): 5.1; MDM2 mRNA Median FCBL ([2]; BM-B2 500 mg bid × 3 d): 1.3; MDM2 mRNA FCBL ([2]; BM-B2 500 mg bid × 3 d): 0.2 and 0.7 and 1.3 and 3.8 and 19.6; MDM2 mRNA Average FCBL ([2]; BM-B3 500 mg qd × 5 d): 2.4; MDM2 mRNA Median FCBL ([2]; BM-B3 500 mg qd × 5 d): 2.0; MDM2 mRNA FCBL ([2]; BM-B3 500 mg qd × 5 d): 1.5 and 2.5 and 4.2 and 1.2; levels of MDM2 mRNA expression in patient's tumors ([2]; doses and schedules of Table 8): increase in the levels of MDM2 mRNA expression; Ki-67 IHC Average % CBL ([3]; BM-A1 800 mg bid Qwk × 3): −8.5%; Ki-67 IHC Median % CBL ([3]; BM-A1 800 mg bid Qwk × 3): −8.5%; Ki-67 IHC % CBL ([3]; BM-A1 800 mg bid Qwk × 3): 14% and −31%; Ki-67 IHC Average % CBL ([3]; BM-A2 1200 mg bid Qwk × 3): −27.8%; Ki-67 IHC Median % CBL ([3]; BM-A2 1200 mg bid Qwk × 3): −33.0%; Ki-67 IHC % CBL ([3]; BM-A2 1200 mg bid Qwk × 3): −57% and 30% and −5% and −75% and −33%; Ki-67 IHC Average % CBL ([3]; BM-B1 400 mg bid × 5 d): −17.7%; Ki-67 IHC Median % CBL ([3]; BM-B1 400 mg bid × 5 d): −13.0%; Ki-67 IHC % CBL ([3]; BM-B1 400 mg bid × 5 d): −97% and −13% and 57%; Ki-67 IHC Average % CBL ([3]; BM-B2 500 mg bid × 3 d): −53.9%; Ki-67 IHC Median % CBL ([3]; BM-B2 500 mg bid × 3 d): −69.8%; Ki-67 IHC % CBL ([3]; BM-B2 500 mg bid × 3 d): 3% and −70% (2×) and −79%; Ki-67 IHC Average % CBL ([3]; BM-B3 500 mg qd × 5 d): −57.1%; Ki-67 IHC Median % CBL ([3]; BM-B3 500 mg qd × 5 d): −66.5%; Ki-67 IHC % CBL ([3]; BM-B3 500 mg qd × 5 d): −67% and −96% and −8%; tumor proliferation via Ki67 ([3]; doses and schedules of Table 9): Decrease levels of tumor proliferation; TUNEL + cells (mm2) Average FCBL ([4]; BM-A1 800 mg bid Qwk × 3): 1.2; TUNEL + cells (mm2) Median FCBL ([4]; BM-A1 800 mg bid Qwk × 3): 0.8; TUNEL + cells (mm2) FCBL ([4]; BM-A1 800 mg bid Qwk × 3): 0.8 (2×) and 3.2 and 0.1; TUNEL + cells (mm2) Average FCBL ([4]; BM-A2 1200 mg bid Qwk × 3): 2.7; TUNEL + cells (mm2) Median FCBL ([4]; BM-A2 1200 mg bid Qwk × 3): 2.3; TUNEL + cells (mm2) FCBL ([4]; BM-A2 1200 mg bid Qwk × 3): 5.3 and 2.3 and 0.9 and 1.6 and 3.3; TUNEL + cells (mm2) Average FCBL ([4]; BM-B1 400 mg bid × 5 d): 1.7; TUNEL + cells (mm2) Median FCBL ([4]; BM-B1 400 mg bid × 5 d): 1.8; TUNEL + cells (mm2) FCBL ([4]; BM-B1 400 mg bid × 5 d): 0.9 (2×) and 1.8 (2×) and 3.2; TUNEL + cells (mm2) Average FCBL ([4]; BM-B2 500 mg bid × 3 d): 1.7; TUNEL + cells (mm2) Median FCBL ([4]; BM-B2 500 mg bid × 3 d): 0.9; TUNEL + cells (mm2) FCBL ([4]; BM-B2 500 mg bid × 3 d): 0.5 and 0.4 and 0.6 and 5.3 and 1.2 and 1.9; TUNEL + cells (mm2) Average FCBL ([4]; BM-B3 500 mg qd × 5 d): 1.2; TUNEL + cells (mm2) Median FCBL ([4]; BM-B3 500 mg qd × 5 d): 1.2; TUNEL + cells (mm2) FCBL ([4]; BM-B3 500 mg qd × 5 d): 0.6 and 1.7 and 1.2; apoptosis by TUNEL ([4]; doses and schedules of Table 10): increase in apoptosis; FLT PET Average % CBL ([5]; BM-A1 800 mg bid Qwk × 3): −17.0%; FLT PET Median % CBL ([5]; BM-A1 800 mg bid Qwk × 3): −20.5%; FLT PET % CBL Cycle 1 ([5]; BM-A1 800 mg bid Qwk × 3): −28.5% and −21.9% and −29.5% and 8.9% and −19.0% and −11.7%; FLT PET Average % CBL ([5]; BM-A2 1200 mg bid Qwk × 3): −0.9%; FLT PET Median % CBL ([5]; BM-A2 1200 mg bid Qwk × 3): 3.2%; FLT PET % CBL Cycle 1 ([5]; BM-A2 1200 mg bid Qwk × 3): −5.0% and 21.1% and −31.1% and 11.3% and −73.1%; FLT PET Average % CBL ([5]; BM-B1 400 mg bid × 5 d): −43.4%; FLT PET Median % CBL ([5]; BM-B1 400 mg bid × 5 d): −32.2%; FLT PET % CBL Cycle 1 ([5]; BM-B1 400 mg bid × 5 d): −82.5% and −29.3% and −23.4% and −32.2%; FLT PET Average % CBL ([5]; BM-B2 500 mg bid × 3 d): −39.2%; FLT PET Median % CBL ([5]; BM-B2 500 mg bid × 3 d): −34.9%; FLT PET % CBL Cycle 1 ([5]; BM-B2 500 mg bid × 3 d): −34.9% and −62.4% and −24.7% and −19.4% and −54.5%; FLT PET Average % CBL ([5]; BM-B3 500 mg qd × 5 d): −29.04%; FLT PET Median % CBL ([5]; BM-B3 500 mg qd × 5 d): −31.0%; FLT PET % CBL Cycle 1 ([5]; BM-B3 500 mg qd × 5 d): −56.4% and −34.3% and −21.7% and −31% and −1.8%; antiproliferative effect by FLT PET ([5]; all doses tested, in particular 3 day and 5 day schedules): antiproliferative effects was seen in all doses tested; toxicity of longer schedules ([6]; longer schedules): delayed thrombocytopenia; continuous exposure after which maximal apoptosis occurs ([6]; solid tumors): about 48 hours
